The results in this text go back to PMC12735872, “Development of ^18F/^11C-Labeled Pyrrolo-Pyridine/Pyrimidine LRRK2 Selective PET Radioligands” (Pharmaceuticals, 2025).

Each structure is given as a SMILES string. Like-named read-outs stand apart in the source and are kept apart here.

For data set [1], the target named is LRRK2 wild-type (WT) (Homo sapiens, UniProt Q5S007). In words: LRRK2 wild-type Lanthascreen. It is filed as biochemical. The note with it: assay described in ref. 16; read-out: LRRK2 Lanthascreen WT cKi. On the technique in general: TR-FRET usually uses a lanthanide donor and a delayed reading to cut background.
LRRK2 wild-type (WT), sequence (Q5S007 whole entry): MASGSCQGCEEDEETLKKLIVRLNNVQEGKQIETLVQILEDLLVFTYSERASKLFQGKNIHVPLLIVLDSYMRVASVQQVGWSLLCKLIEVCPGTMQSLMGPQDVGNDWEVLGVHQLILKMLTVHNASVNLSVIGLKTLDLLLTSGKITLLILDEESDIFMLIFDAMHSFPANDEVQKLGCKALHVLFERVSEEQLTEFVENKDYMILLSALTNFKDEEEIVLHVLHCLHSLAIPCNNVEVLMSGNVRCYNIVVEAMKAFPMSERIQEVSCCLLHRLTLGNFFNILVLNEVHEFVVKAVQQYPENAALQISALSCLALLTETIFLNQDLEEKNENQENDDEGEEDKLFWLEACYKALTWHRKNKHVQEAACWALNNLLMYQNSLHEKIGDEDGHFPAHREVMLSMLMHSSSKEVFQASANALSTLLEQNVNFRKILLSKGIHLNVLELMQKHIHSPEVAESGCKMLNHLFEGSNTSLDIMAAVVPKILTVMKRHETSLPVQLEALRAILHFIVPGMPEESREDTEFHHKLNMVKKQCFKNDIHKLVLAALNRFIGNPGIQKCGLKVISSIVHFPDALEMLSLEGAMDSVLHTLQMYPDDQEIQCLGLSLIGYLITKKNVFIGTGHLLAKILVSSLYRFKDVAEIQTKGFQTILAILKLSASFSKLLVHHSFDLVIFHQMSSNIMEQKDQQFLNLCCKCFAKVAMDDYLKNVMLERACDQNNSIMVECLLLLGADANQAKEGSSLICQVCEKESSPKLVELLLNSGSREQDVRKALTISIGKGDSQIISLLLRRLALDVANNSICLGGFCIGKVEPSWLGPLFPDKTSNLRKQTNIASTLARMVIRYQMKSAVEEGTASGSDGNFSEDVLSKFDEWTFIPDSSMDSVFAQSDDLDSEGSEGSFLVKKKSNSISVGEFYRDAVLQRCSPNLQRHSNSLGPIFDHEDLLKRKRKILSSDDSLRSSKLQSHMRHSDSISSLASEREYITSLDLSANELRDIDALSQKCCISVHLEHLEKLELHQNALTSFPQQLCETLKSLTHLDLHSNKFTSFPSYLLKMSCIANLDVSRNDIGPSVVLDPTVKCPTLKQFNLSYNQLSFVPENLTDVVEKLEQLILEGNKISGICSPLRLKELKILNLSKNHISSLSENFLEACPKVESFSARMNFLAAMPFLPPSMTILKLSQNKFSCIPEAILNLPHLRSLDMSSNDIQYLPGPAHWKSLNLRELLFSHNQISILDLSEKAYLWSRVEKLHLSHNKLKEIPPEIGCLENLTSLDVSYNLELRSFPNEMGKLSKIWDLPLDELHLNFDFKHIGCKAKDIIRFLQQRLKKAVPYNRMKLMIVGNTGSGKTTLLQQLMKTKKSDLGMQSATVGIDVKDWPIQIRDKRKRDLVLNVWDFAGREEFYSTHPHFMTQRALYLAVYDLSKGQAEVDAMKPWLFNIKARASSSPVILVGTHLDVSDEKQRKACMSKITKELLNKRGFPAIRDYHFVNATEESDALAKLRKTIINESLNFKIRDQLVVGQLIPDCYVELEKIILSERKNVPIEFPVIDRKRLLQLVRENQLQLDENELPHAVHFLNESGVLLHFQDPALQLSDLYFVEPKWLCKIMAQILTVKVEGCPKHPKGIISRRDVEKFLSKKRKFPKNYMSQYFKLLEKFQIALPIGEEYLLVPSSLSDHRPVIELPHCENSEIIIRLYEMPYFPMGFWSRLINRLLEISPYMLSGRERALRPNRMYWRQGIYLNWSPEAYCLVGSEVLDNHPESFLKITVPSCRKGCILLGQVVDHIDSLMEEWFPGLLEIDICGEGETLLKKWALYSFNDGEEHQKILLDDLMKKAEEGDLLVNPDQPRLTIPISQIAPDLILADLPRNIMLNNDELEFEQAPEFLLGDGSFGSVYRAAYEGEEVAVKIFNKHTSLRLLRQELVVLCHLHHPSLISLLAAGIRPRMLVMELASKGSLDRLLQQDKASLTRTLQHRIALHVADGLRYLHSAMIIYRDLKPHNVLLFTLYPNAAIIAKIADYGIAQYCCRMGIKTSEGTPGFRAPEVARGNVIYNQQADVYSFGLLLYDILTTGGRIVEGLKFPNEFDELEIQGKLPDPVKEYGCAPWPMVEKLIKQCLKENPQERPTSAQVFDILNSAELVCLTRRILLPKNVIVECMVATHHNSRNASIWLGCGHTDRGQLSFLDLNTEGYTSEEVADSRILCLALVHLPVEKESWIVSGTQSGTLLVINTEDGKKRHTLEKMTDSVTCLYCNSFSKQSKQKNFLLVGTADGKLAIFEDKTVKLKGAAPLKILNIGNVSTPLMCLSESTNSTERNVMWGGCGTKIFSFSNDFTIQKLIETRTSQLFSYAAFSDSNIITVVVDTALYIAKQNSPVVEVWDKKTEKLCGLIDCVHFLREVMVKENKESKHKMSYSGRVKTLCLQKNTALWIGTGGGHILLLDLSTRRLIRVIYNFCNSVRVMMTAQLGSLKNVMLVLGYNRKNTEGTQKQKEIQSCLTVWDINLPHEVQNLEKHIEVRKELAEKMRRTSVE
Data set [2] addresses LRRK2 G2019S (Homo sapiens, UniProt Q5S007, G2019S). The experiment in a line: LRRK2 G2019S Lanthascreen. It is filed as biochemical. The note with it: assay described in ref. 16; read-out: LRRK2 Lanthascreen G2019S cKi.
Data set [3] has as its system MDR1 (P-gp). In words: MDR1-MDCK permeability and efflux ratio. The note with it: dog, assay described in ref. 17. It is filed as in vitro ADME. The text has this:
Table 1 LRRK2 wild-type (WT) and G2019S Lanthascreen, MDR1-MDCK permeability (Papp A:B), and efflux ratio (B:A/A:B), free fractions in plasma (fp) and brain homogenate (fb) and PET Multi-Parameter Optimization (MPO) score of Compounds 1, 2, and 3. | column: Papp A:B ^2 (MDR1-MDCK) (cm/s × 10^−6); B:A/A:B ^2

Data set [4] can be described thus: Free fraction in plasma (fp). It is filed as in vitro ADME. The note with it: method ref. 18. An excerpt:
Table 1 LRRK2 wild-type (WT) and G2019S Lanthascreen, MDR1-MDCK permeability (Papp A:B), and efflux ratio (B:A/A:B), free fractions in plasma (fp) and brain homogenate (fb) and PET Multi-Parameter Optimization (MPO) score of Compounds 1, 2, and 3. | column: fp ^3 (%)

The nature of data set [5]: Free fraction in brain homogenate (fb). It is filed as in vitro ADME. The note with it: method ref. 18. An excerpt: Table 1 LRRK2 wild-type (WT) and G2019S Lanthascreen, MDR1-MDCK permeability (Papp A:B), and efflux ratio (B:A/A:B), free fractions in plasma (fp) and brain homogenate (fb) and PET Multi-Parameter Optimization (MPO) score of Compounds 1, 2, and 3. | column: fb ^3 (%)

For data set [6], the system named is cynomolgus monkey brain. In words: In vivo PET imaging in cynomolgus monkeys. Conditions: PET, iv, baseline. The text has this:
PET measurements were led using a high-resolution research tomograph (HRRT) from Siemens Molecular Imaging (Knoxville, TN, USA). List mode data were reconstructed using the ordinary Poisson-3D-ordered subset expectation maximization (OP-3D-OSEM) algorithm, with 10 repetitions and 16 subsets while modeling the point spread function (PSF). The in-plane resolution accomplished with OP-3D-OSEM and PSF was 1.5 mm full width at half maximum (FWHM) at the center of the field of view (FOV) and 2.4 mm at 10 cm off-center.
The study was approved by the Animal Ethics Committee of the Swedish Animal Welfare Agency and was performed according to “Guidelines for planning, conducting and documenting experimental research” (Dnr 5.2.18-4170/14 issued on 11 April 2014) of the KI as well as the “Guide for the Care and Use of Laboratory Animals” [26]. NHPs were supplied by the Astrid Fagraeus Laboratory (AFL) of the Swedish Institute for Infectious Disease Control (SMI), Solna, Sweden. Anesthesia was brought by intramuscular injection of ketamine hydrochloride (approximately 10 mg/kg) at AFL and continued with a mixture of sevoflurane (0–8.0%), oxygen, and medical air through endotracheal intubation at the KI PET center. The NHP head was immobilized using a homemade fixation device. Body temperature was maintained with a Bair Hugger model 505 (Arizant Healthcare, Eden Prairie, MN, USA) and monitored via an esophageal thermometer. ECG, heart rate, respiratory rate, blood pressure, and oxygen saturation were continuously examined throughout the experiments. The fluid balance was retained with continuous infusion of saline.
A 6 min transmission scan was performed before the injection of the radioligand using a single Cs-137 source. List mode data was acquired continuously for 93 min following intravenous administration of the radioligand. Images were reconstructed into 38 frames with varying intervals: […].
For all PET measurements, radioligands were administered via intravenous injection. Regions of interest (ROIs) were manually delineated on MRI images for each NHP, for the whole brain, cerebellum, caudate, putamen, thalamus, frontal cortex, temporal cortex, amygdala, posterior cingulate cortex, anterior cingulate cortex, hippocampus, occipital cortex, parietal cortex, ventral striatum, and insula. The summed PET images over the entire duration were co-registered with the individual NHP’s MRI image. After applying the co-registration parameters to the dynamic PET data, time–activity curves were generated for each brain region for every PET measurement. The standardized uptake value (SUV) was calculated for each brain region. The total distribution volume (VT) for all three radioligands were derived using one-tissue compartment (1-TC) and two-tissue compartment (2-TC) models.
On two separate occasions, PET measurements were performed after intravenous administration of GEN-7915 or PFE-360 with a slow infusion in one NHP (NHP2). The infusion lasted for 2 min, starting 30 min before PET scanning. The pretreatment formulations were prepared by dissolving it in DMSO (5%), Kolliphor EL (15%), and PBS (80%), and the pH of the final formulation was approximately 4.5–5.0. An automated blood sampling system (ABSS) measured continuous radioactivity for the first 3 min following the radioligand injection, while manual blood samples were taken at 4, 15, 30, 60, and 90 min post-injection to measure the radioactivity and metabolism.

Data set [7] in a line: Radiometabolite analysis in monkey plasma (gradient HPLC). It is filed as in vivo, cynomolgus monkey. Conditions: baseline PET. As for the experimental part: The technique published earlier was utilized for the analysis of radiometabolites in NHP blood plasma. During the entire PET measurement, the percentage of the injected radioligand and its corresponding radioactive metabolites and radioactivity was measured with a reverse-phase HPLC system with UV absorbance detector (λ = 254 nm) and a radioactive detector. […] The blood samples were centrifuged at 4000 rpm for 2 min to separate plasma. From the centrifuged plasma, the resulting plasma was withdrawn and spiked with 1.4 times its volume of acetonitrile before being spun at 6000 rpm for 4 min. The supernatant, collected after the spun at 6000 rpm, was diluted with 3 mL of water, which was then injected into the HPLC system. The HPLC system was constructed with an Agilent 1200 series binary pump (Agilent, Santa Clara, CA, USA), a Rheodyne 7725i (Thermo Scientific, Waltham, MA, USA) manual injection valve, a 5.0 mL loop, and an Oyokoken S-2493Z radiation detector (Oyokoken, Tokyo, Japan) fitted with 50 mm lead shielding, which houses the detector. Chromatographic separation of the radiometabolites from the unchanged radioligand was performed via gradient elution on a semi-preparative reverse-phase ACE 5 µm C18 HL column (250 × 10 mm) using a mobile phase of acetonitrile (A) and ammonium formate 0.1 M (B). A flow rate of 5.0 mL/min was utilized according to the program 0–6.0 min: (A/B) 40:60 → 90:10 v/v; 6.0–10.0 min: (A/B) 90:10 (v/v). The radioactive peak corresponding to the parent radioligand was then integrated from the data output of the HPLC column. The area of this peak was calculated relative to the total area detected for all radioactive compounds. To evaluate the radioactivity recovery from the system, the measurement was taken from a 2 mL aliquot of the eluate taken from the HPLC column and measured against the total injected radioactivity.

The nature of data set [8]: Plasma protein binding by ultrafiltration. In kind it is in vitro ADME, non-human primate (NHP). The note with it: cynomolgus monkey, pH 7.4, NHP plasma, baseline. As for the experimental part:
The plasma protein binding of all three radioligands was determined in duplicate at the baseline condition according to a previously published method. For each blood plasma sample, 500 μL of non-human primate (NHP) blood plasma was used with 50 μL PBS (pH 7.4 containing KCl 0.2 mg, KH2PO4 0.2 mg, Na2HPO4 1.42 mg, and NaCl 8 mg per mL). The mixture included around 20 MBq of the corresponding radioligand in PBS. Samples underwent incubation at room temperature for 10 min. A small aliquot (20 µL) was taken from each mixture, and radioactivity measurements were performed using a well counter. From each mixture, 200 µL was placed into ultrafiltration tubes (Millipore Centrifree YM-30) and centrifuged at 3000 rpm for 15 minutes. The remaining filtrates were analyzed and aliquots (20 µL) were counted in the well counter described earlier. Protein-bound fractions were calculated as follows:(1) C⥂pla (filtrate) /Cpla (total) ÷CPBS (filtrate) /CPBS (total) ×100(%)
Cpla (total) represents the radioactivity concentration of incubation mixture in plasma and CPBS (total) represents the radioactivity concentration of incubation mixture in PBS. Cpla (filtrate) and CPBS (filtrate) are the radioactivity concentrations from filtrate samples.

Data set [9] in a line: Stability of formulated radioligand in PBS (analytical HPLC). In kind it is physicochemical. The note with it: sterile PBS, for 60 min. As for the experimental part: The radiochemical purity and stability of all three radioligands ([^11C]3, [^18F]1 and [^18F]2) were determined using analytical HPLC coupled with an XBridge analytical column (C18 5 µm, 4.6 × 150 mm particle size), a Merck-Hitachi L-7100 pump, an L-7400 UV detector, and a GM tube for radioactivity detection (VWR International). A mixture of acetonitrile (25%) and HCO2NH4 (0.1 M aq. solution) (75%) with a flow rate of 2 mL/min was used as HPLC isocratic mobile phase. The HPLC liquid flow was monitored using a UV absorbance detector (λ = 254 nm) in conjunction with a radioactive detector (BETA-flow, Beckman, Fullerton, CA, USA). All three radioligands were eluted with a retention time (tR) of 4.0–4.5 min, and the total run time of the HPLC program was 9 min. The identity of the radiolabeled compound was confirmed by co-injecting the corresponding authentic reference standard.

LRRK2 G2019S, sequence (Q5S007 whole entry G2019S): as the sequence (Q5S007 whole entry) above, with G2019S counted along it

In general, Papp A→B refers to how fast a substance crosses the layer from the apical side. Take `C[C@@H]1C[C@@H](F)CN1c1c(C#N)c2c(N)ncnc2n1C` [Compound 2, 4-Amino-6-((2R,4R)-4-fluoro-2-methylpyrrolidin-1-yl)-7-methyl-7H-pyrrolo[2,3-d]pyrimidine-5-carbo nitrile]: the Ki came to 320 pM in data set [1] and 370 pM in data set [2]. Moreover, in [3] (MDCK-MDR1), the apical-to-basolateral permeability (Papp A→B) was determined as 44 ×10⁻⁶ cm/s. In addition, the efflux ratio in [3] (MDR1-MDCK, read-out: B:A/A:B (efflux ratio)) came to 0.66. In addition, the fraction unbound in [4] was found to be 0.47; in data set [5], 0.23.
In the case of `C[C@@H]1CCCN1c1c(C#N)c2c(N)nc(Nc3cnn([11CH3])c3)nc2n1C` [[^11C]3, (R)-4-Amino-7-methyl-2-((1-[^11C]methyl-1H-pyrazol-4-yl)amino)-6-(2-methylpyrrolidin-1-yl)-7H-pyrrolo[2,3-d]pyrimidine-5-carbonitrile], the Brain uptake in data set [6] is > 1 %ID. Further, in [6], the Brain washout result is recorded as “rapid washout”. Also, in [6], the “Regional distribution of brain uptake” value is reported as “no significant regional differences”. The “Parent compound, share of eluted plasma radioactivity” value is on record as “over 90%” in [7] (at 5 min) and “around 10%” in data set [7] (at 90 min). For the same compound, the fraction unbound at 10 min in [8] (read-out: Free fraction in plasma (fP)) is ~0.15; in [8] (read-out: Plasma protein binding (converted)), < 0.15. Also, in [9], the “Radiochemical purity maintained in formulation” value was “exceeding 99%”.
